Assay results: patent US20160010059A1, “EXPANSION OF HEMATOPOIETIC PROGENITOR CELLS BY HISTONE METHYLTRANSFERASE G9a INHIBITION” (The Regents of the University of California, priority 2013, published 2016)
Entries after “also recorded” stand apart in the source; their conditions may differ.

Tests used:
[1] = tested on: histone acetylation; assay: Histone western blot after HDAC inhibitor treatment (assay sensitivity control); type: cell-based, mouse; settings: 37° C. for 2 hours
Description: (§1) For western blot, FACS sorted cells were lysed in RIPA buffer, and run in a 15% gradient SDS-page (BIO-RAD). Histone modifications were assessed with antibodies against H3k27me3 (07-449 Millipore), H3 Acetylated (06-599), H4K16Ac (07-329), H3k4me3 (07-473), total H3 (06-755), H3k36me3 (Ab9050 abcam), H3k9me2 (Ab1220), H3k9me3 (Ab8898). Cells were incubated with the HDAC inhibitor trichostatin A (Cell signaling) at 37° C. for 2 hours to induce histone acetylation. For immunostaining cells were sorted onto poly-lysine coated slides, fixed with 2% PFA, permeabilized with 0.1% triton-x in PBS, and stained with H3k9me3 (Ab8898), Lamin B (sc-6217) antibodies followed by an Alexa488-Donkey-α-goat and a Alexa594-goat-α-rabbit secondary antibody (Invitrogen) plus DAPI. Images were acquired using a PerkinElmer Volocity spinning disk confocal microscope. Image analysis was done using ImageJ software (Schneider et al., 2012).

[2] = tested on: lethally irradiated C57BL/6 mice; assay: Transplantation of cultured HSCs into lethally irradiated mice (chimerism); type: in vivo, mouse
[3] = tested on: H3k9me2 on putative G9a targets; assay: ChIP-qPCR of histone marks on putative G9a targets identified by RNA-seq; type: cell-based, mouse; settings: n=3
[4] = tested on: KLS cells; assay: Replating of cultured cells into liquid culture with SCF and TPO (proliferation capacity); type: cell-based, mouse
[5] = tested on: H3K9me2 / H3K9me3; assay: Histone western blot and immunofluorescence in UNC0638 treated cells; type: cell-based, mouse
Description: as §1

[6] = tested on: HSC-related genes; assay: Global gene expression analysis (RNA-seq) of KLS fractions after 5 days in vitro culture; type: cell-based, mouse; settings: 5 days culture

| SMILES | global levels of histone acetylation [1] | lineage readout after transplantation ([2]; 24 hrs or 5 days culture) | Percentage of chimerism / engraftment ([2]; cells cultured for 24 hrs with UNC0638 before transplantation, n=10 per group) | Percentage of chimerism / engraftment ([2]; cells cultured for 5 days on AFT024 feeder layers with UNC0638 before transplantation, n=10) | levels of H3k9me2 on putative G9a targets [3] | levels of H3k9me3 on putative G9a targets [3] | levels of active mark H3K4me3 on putative G9a targets [3] | proliferation capacity ([4]; after day 5 of in vitro culture) | proliferation capacity ([4]; replating equal amounts of KLS after 5 days culture) | number of cells ([4]; replating equal amounts of Kit+ cells, 10 days in culture) | amount of H3K9me2 by western blot ([5]; UNC0638 treated cells) | distribution of H3K9me3 by immunofluorescence ([5]; compared to the DMSO treated control) | downregulated genes ([6]; Egr1, Ndn, Robo4) | upregulated genes ([6]; vs DMSO control, DESEQ padj<0.01, e.g. Sox6, Itga2b, Gata1, Fgf3) |
| --- | --- | --- | --- | --- | --- | --- | --- | --- | --- | --- | --- | --- | --- | --- |
| CC(/C=C/C(=O)NO)=C\[C@@H](C)C(=O)c1ccc(N(C)C)cc1 [trichostatin A] | significantly increased the global levels of histone acetylation | – | – | – | – | – | – | – | – | – | – | – | – | – |
| COc1cc2c(NC3CCN(C(C)C)CC3)nc(C3CCCCC3)nc2cc1OCCCN1CCCC1 [UNC0638] | – | no defects in lineage potential; also recorded: readout in all 5 lineages | minor increase in engraftment; also recorded: positive trend in higher chimerism for UNC0638 treated cells in all myeloid and lymphoid lineages, though not significant | modest increase in the levels of engraftment; also recorded: significantly higher % of GM and B chimerism | significantly lower amount of H3K9me2 at their promoter; also recorded: significantly reduced levels of H3k9me2 | trend to lower amount of H3K9me3; also recorded: mild trend toward H3k9me3 reduction | no differences for the active mark H3K4me3 | increase proliferation capacity after day 5 | equal proliferation capacity as the KLS control cells | significant higher number of cells after 10 days in culture | effect is highly enriched in the KLS fraction | more disperse distribution of this histone mark | significantly downregulation of some genes | significant number of HSC-related genes upregulated; also recorded: significant number of upregulated HSC-related genes |
